# Data published in patent EP3723746B1, “PHENOXY ACIDS FOR THE TREATMENT OF NEUROMUSCULAR DISORDERS” (NMD Pharma A/S, priority 2017, dated 2019).
# Experiments:
# soleus muscles = assay: Measurement of force in an in vitro model: recovery of contractile force of isolated rat soleus nerve-muscle preparation after tubocurarine
# Experimental: Recovery of force is quantified as the percentage of the force prior to tubocurarine that is recovered by the compound.
# The current invention relates to compounds that inhibit CIC-1 ion channels and increase muscle excitability and thereby improve muscle function in clinical conditions where muscle activation is failing. Such conditions result in loss of contractile function of skeletal muscle, weakness and excessive fatigue. In this series of experiments the compounds were tested for their ability to restore contractile function of isolated rat muscle when the neuromuscular transmission had been compromised akin to neuromuscular disorders.
# Experimentally, soleus muscles from 4-5 week old rats were isolated with the motor nerve remaining attached. The nerve-muscle preparations were mounted in experimental setups that enabled electrical stimulation of the motor nerve. Stimulation of the motor nerve led to activation of the muscle fibres and ensuing force production that was recorded.
# After mounting the nerve-muscle preparation in the experimental setup, the contractile function of the muscle was initially assessed under the control conditions (Figure 2A). […] The experimental condition mimics the failing neuromuscular transmission in a range of neuromuscular disorders. After addition of tubocurarine the contractile force declined over the next 90 mins to 10-50 % of the control force. 50 µM of the test compound was then added and the contractile force recovered despite the continued presence of tubocurarine. To quantify the ability of the compound to restore force the percentage of the initial force that was restored was determined after 40 mins of compound exposure (Figure 2B) and the point increase is reported in Table 3. Table 3: Percentage increase of initial force that was restored
# CIC-1 channels = target: T1, CIC-1 channels (Rattus norvegicus, UniProt P35524); assay: Electrophysiological measurement of compound inhibition of CIC-1 in rat muscle (Gm, three micro-electrode technique, soleus muscle fibres); assay type: cell-based; settings: reduction of Gm in rat soleus muscle fibres, approx. 30°C; mean ± spread, n = number of experiments
# T1 construct: from tissue; host or cells: whole soleus muscle of 12-14 week old Wistar rats
# T1 sequence (P35524 1-994): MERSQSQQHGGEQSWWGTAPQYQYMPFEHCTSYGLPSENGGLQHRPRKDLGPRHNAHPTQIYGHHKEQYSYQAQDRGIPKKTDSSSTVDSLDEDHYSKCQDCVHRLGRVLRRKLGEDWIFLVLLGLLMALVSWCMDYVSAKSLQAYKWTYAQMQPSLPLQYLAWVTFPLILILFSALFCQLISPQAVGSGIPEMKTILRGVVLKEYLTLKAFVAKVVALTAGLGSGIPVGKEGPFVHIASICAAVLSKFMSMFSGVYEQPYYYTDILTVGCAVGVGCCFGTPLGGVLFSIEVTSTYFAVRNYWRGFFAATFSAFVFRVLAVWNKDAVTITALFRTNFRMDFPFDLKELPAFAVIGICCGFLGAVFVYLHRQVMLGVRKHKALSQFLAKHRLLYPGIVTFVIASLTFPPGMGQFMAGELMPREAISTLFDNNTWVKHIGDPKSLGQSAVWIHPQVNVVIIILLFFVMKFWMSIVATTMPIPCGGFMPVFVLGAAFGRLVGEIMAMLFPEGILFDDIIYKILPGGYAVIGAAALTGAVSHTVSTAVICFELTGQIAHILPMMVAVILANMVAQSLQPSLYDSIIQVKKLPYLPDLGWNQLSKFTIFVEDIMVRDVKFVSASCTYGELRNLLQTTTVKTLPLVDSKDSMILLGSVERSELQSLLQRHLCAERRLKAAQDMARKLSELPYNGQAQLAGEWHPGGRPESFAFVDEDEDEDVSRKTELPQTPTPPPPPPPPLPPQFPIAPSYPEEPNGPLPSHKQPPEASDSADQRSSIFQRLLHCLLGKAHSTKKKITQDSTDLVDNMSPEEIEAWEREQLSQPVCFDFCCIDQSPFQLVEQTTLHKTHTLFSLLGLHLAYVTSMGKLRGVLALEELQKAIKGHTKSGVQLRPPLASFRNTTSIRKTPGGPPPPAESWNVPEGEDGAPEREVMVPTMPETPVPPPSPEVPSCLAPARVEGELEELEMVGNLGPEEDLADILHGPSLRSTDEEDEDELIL
# Description: Table 2: Inhibition of CIC-1 ion channel using compounds of the invention
# Lewis rats = assay: Measurement of in situ muscle contractile characteristics (isometric hindlimb force under cisatracurium block); assay type: in vivo; settings: 40 mg/kg i.v., cisatracurium infusion, 3 experiments
# Experimental: Isometric hindlimb force was measured in 12-week old female Lewis rats in the presence and absence of compound.
# Rats were placed under anesthesia with isoflurane (2-4%), intubated and subsequently connected to a micro ventilator (Microvent 1, Hallowell EMC, US). Two stimulation electrodes were inserted through the skin to stimulate the sciatic nerve. A small incision was made proximal to the ankle, to expose the Achilles tendon, which was tied by cotton string, and connected to a force transducer (Fort250, World Precision Instruments) with adjustable position (Vernier control). The Achilles tendon was then cut distal to the attached cotton string. The rat was placed on a heated pad, and to prevent movement artefacts from contraction of the ankle dorsiflexors, the foot was fixated by tape on a footplate.
# Muscle contractile properties were assessed by applying an electrical current (under supramaximal voltage conditions) to the nerve and recording the force generated by the muscle. The muscle was stretched until maximal force was obtained, when assessed by 2 Hz stimulation. Isometric force was measured every 30 seconds at 12 Hz (Twitch), 10 pulses, and at every 5 minutes at 80 Hz (Tetanic) for 1 second (80 pulses). This stimulation pattern was employed throughout the experiment, expect in few cases where 80 Hz stimulation was replaced by 12 Hz (10 pulses). […] When the level of neuromuscular inhibition was stable, the test article was injected i.v. at the chosen concentration. The effect of test article was assessed on its ability to increase force generated from the stimulation pattern applied. The effect was assessed in the ability to increase force per se (tetanic, 80 Hz, stimulation), and the ratio between individual twitch peaks (12 Hz stimulation). The effect was monitored for at least 1 hour after injection of test article. In addition, the time from injection of test article to maximal effect on force (both twitch and tetanic) was noted and the time for the effect to disappear (return to baseline), if possible. When appropriate the infusion of neuromuscular blocking agent was ceased, with the stimulation pattern continued, and the return of force to control levels was monitored. Animals were sacrificed by cervical dislocation while still fully sedated.
smiles,measurement,setting,value
"C#Cc1cc(Br)ccc1O[C@@H](C)C(=O)O [Compound A-19, (2S)-2-(4-bromo-2-ethynylphenoxy)propanoic acid]",average force (AUC) relative to initial force,"soleus muscles; Figure 2: 50 µM compound after 90 min incubation in tubocurarine, 3 muscles",recovered
same,activation at 50 µM,"soleus muscles; Rattus norvegicus, 40 min, 50 µM test compound, after 90 mins 115 nM tubocurarine, percentage of the initial force restored after 40 mins of compound exposure, read-out: Point increase",31%
same,EC50,CIC-1 channels,3.5 ± 0.6 µM
same,average increase in twitch peaks,Lewis rats; 12 Hz stimulation,9.6%
same,average increase in tetanic force,Lewis rats; 80 Hz stimulation,44.5%
